Test results as given in ChEMBL document CHEMBL5604065, “ASAP - DENV-3 NS2B-NS3 protease fluorescence dose response” (2024).
Where “and” joins values, the source holds several entries; their conditions need not be identical. Equal values may be shown once.

What follows are compounds tested against T1, NS3 protease (dengue virus type 3, UniProt A0A0B5JFF1) (assay: Functional biochemical assay to identify treatments for viral infectious disease that targets Dengue virus type 3 NS2B-NS3 protease. Utilizing a direct enzyme activity measurement method, reading the fluorescence intensity is used to characterize the relative potency of inhibitors as IC50.).
T1 sequence (A0A0B5JFF1 whole entry): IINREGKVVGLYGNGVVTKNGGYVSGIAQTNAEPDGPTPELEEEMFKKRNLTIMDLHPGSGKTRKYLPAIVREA
Set-up: species or system Philippines/H87/1956

Row | SMILES | IC50
1 | N=C(N)NCCC[C@H](NC(=O)c1nccs1)C(=O)N[C@@H](CCCCN)C(=O)N[C@@H](C(N)=O)c1ccc(OCc2ccc(C(F)(F)F)cc2)cc1 | 2.22 µM (2×) and 2.34 µM and 1.63 µM and 2.19 µM and 2.45 µM and 1.49 µM
2 | N=C(N)NCCC[C@H](NC(=O)[C@H](Cc1ccc(CN)cc1)NC(=O)c1ccccc1)B(O)O | 0.819 µM and 0.784 µM and 0.98 µM
3 | COCCNC(=O)[C@H](Nc1ccc2c(c1)CNC2)c1cc(Cl)cc(C2CC2)c1 | 63.4 µM
4 | O=C(NCC(F)F)[C@H](Nc1ccc2c(c1)CNC2)c1cc(Cl)cc(C2CC2)c1 | 28.5 µM and > 99.5 µM and 23.8 µM
5 | O=C(Nc1ccc2c(c1)CNCC2)c1cc(Cl)cc2[nH]ncc12 | 93.9 µM
6 | CC(C)(C)c1cc(Br)cc(C(=O)Nc2ccc3c(c2)CNC3)c1 | > 99.5 µM
7 | Clc1ccc2[nH]cc(Cc3ccc(-c4nn[nH]n4)cc3)c2c1 | 44.1 µM
8 | CN1Cc2ccc(NC(=O)c3cc(Cl)cc4[nH]ncc34)cc2C1 | 92.8 µM
9 | O=C(Nc1ccc2c(c1)CNC2)c1cccc(-c2cnco2)c1 | 21.2 µM
10 | CC(C)NC(=O)[C@H](Nc1ccc2c(c1)CNC2)c1cc(Cl)cc2[nH]ncc12 | 26.2 µM
11 | Cn1cc2cc(Cl)cc(C(=O)Nc3ccc4c(c3)CNC4)c2n1 | > 99.5 µM
12 | O=C(Nc1ccc2c(c1)CNC2)c1cc(Br)cc2ccccc12 | > 99.5 µM
13 | O=C(Nc1ccc2c(c1)CNC2)c1cc(Cl)cc2c1CCC2 | > 99.5 µM
14 | CNC(=O)[C@H](Nc1ccc2c(c1)CNC2)c1cc(Cl)cc(C2CC2)c1 | > 99.5 µM
15 | O=C1Cc2c(cccc2C(=O)Nc2ccc3c(c2)CNC3)N1 | 14.2 µM
16 | O=C(Nc1ccc2c(c1)CNC2)c1cc(Br)cc2[nH]c(-c3ccccc3)nc12 | 1.47 µM
17 | N#C[C@H](Nc1ccc2c(c1)CNC2)c1cc(Cl)cc(C2CC2)c1 | > 99.5 µM
18 | O=C(Nc1cc(Cl)cc([C@H]2CN(Cc3ccccc3)C[C@@H]2c2cccc(-c3nn[nH]n3)c2)c1)OCc1ccccc1 | 6.03 µM
19 | Clc1cc(CNc2ccc3c(c2)CNC3)c2cn[nH]c2c1 | 42.2 µM
20 | CC(C)c1cc(Br)cc(C(=O)Nc2ccc3c(c2)CNC3)c1 | > 99.5 µM
21 | O=C(NC1CCOCC1)[C@H](Nc1ccc2c(c1)CNC2)c1cc(Cl)cc(C2CC2)c1 | 53.4 µM
22 | Cn1cc(CNC(=O)[C@H](Nc2ccc3c(c2)CNC3)c2cc(Cl)cc(C3CC3)c2)cn1 | 81.8 µM
23 | O=C(Nc1cc(Cl)cc(C(=O)Nc2ccc3c(c2)CNC3)c1)OCc1ccccc1 | 72.5 µM
24 | Cn1cc(CCc2nc3c(C(=O)Nc4ccc5c(c4)CNC5)cc(Cl)cc3[nH]2)cn1 | 23.7 µM
25 | O=C(Nc1ccc2c(c1)CNC2)c1cc(F)cc2[nH]ncc12 | 23.4 µM

Row | SMILES | IC50
26 | Cc1c(C(=O)Nc2cc([C@H]3CCOC3)ccn2)cc(C2CC2)n1C | > 99.5 µM
27 | O=C(Nc1ccc2c(c1)CNC2)c1cc(Cl)cc2ccncc12 | 69.8 µM
28 | O=C1Cc2c(cc(Br)cc2C(=O)Nc2ccc3c(c2)CNC3)N1 | 17.8 µM
29 | CC(C)NC(=O)[C@H](Nc1ccc2c(c1)CNC2)c1cc(Cl)cc2[nH]c(-c3ccccc3)nc12 | 7.06 µM and 2.21 µM
30 | O=C(Nc1cc(Cl)cc([C@H](C#CCO)Nc2cccc(-c3nn[nH]n3)c2)c1)OCc1ccccc1 | 11.9 µM
31 | NCCc1csc2cc(C(=O)Nc3cc([C@H]4CCOC4)ccn3)ccc12 | > 99.5 µM
32 | O=C(Nc1ccc2c(c1)CNC2)c1cccc2[nH]c(C(F)(F)F)cc12 | 31.8 µM
33 | O=C(Nc1ccc2c(c1)CNC2)c1cc(Cl)cc2cn[nH]c12 | 41.9 µM
34 | N#Cc1cccc(-c2nc3c(C(=O)Nc4ccc5c(c4)CNC5)cc(F)cc3[nH]2)c1 | 2.31 µM
35 | NCc1cccc([C@H]2C[C@@H]2c2cc(Cl)cc(NC(=O)OCc3ccccc3)c2)c1 | 7.85 µM
36 | C=CC[C@H]1NCc2cc(NC(=O)c3cccc4c3CC(=O)N4)ccc21 | > 99.5 µM
37 | N#C[C@H](Nc1cccc(-c2nn[nH]n2)c1)c1cc(Cl)cc(NC(=O)OCc2ccccc2)c1 | 9.59 µM
38 | O=C(Nc1ccc2c(c1)CNC2)c1cc(Cl)cc2[nH]ncc12 | 13.4 µM
39 | O=C(Nc1ccc2c(c1)CNC2)c1ccc2[nH]cc(C3CCNCC3)c2c1 | 29.2 µM
40 | O=C(Nc1ccc2c(c1)CNC2)c1cc(Br)cc2[nH]c(=O)[nH]c12 | 21.5 µM
41 | N#C[C@H](Nc1ccc2c(c1)CNC2)c1cc(Cl)cc2[nH]ncc12 | > 99.5 µM
42 | O=C(Nc1cc(Cl)cc(C(=O)Nc2cccc([C@H]3C[C@H]3C(=O)O)c2)c1)OCc1ccccc1 | 22.6 µM
43 | Clc1cc([C@@H]2C[C@H]2c2cccc(C3CCNCC3)c2)c2cn[nH]c2c1 | 6.45 µM
44 | Cc1c(C(=O)Nc2cc(-c3cccnc3)ccn2)cc(C2CC2)n1C | 6.22 µM
45 | O=C(NCC(F)F)[C@H](Nc1ccc2c(c1)CNC2)c1cc(F)cc2[nH]ccc12 | > 99.5 µM
46 | CC(C)c1nnc(-c2nc3c(C(=O)Nc4ccc5c(c4)CNC5)cc(F)cc3[nH]2)s1 | 10.8 µM
47 | C=CC[C@H]1NCc2cc(NC(=O)c3cc(Cl)cc4[nH]ncc34)ccc21 | 68.2 µM
48 | Cc1nc2c(C(=O)Nc3ccc4c(c3)CNC4)cc(Cl)cc2[nH]1 | > 99.5 µM
49 | O=C(Nc1cc(Cl)cc(-c2ccc3[nH]c(C(=O)O)cc3c2)c1)OCc1ccccc1 | 5 µM
50 | O=C(NCCC1CC1)[C@H](Nc1ccc2c(c1)CNC2)c1cc(Cl)cc(C2CC2)c1 | > 99.5 µM

Row | SMILES | IC50
51 | NCc1cccc(-c2csc3cc(C(=O)Nc4ccc5c(c4)CNC5)ccc23)c1 | 29.8 µM
52 | N#Cc1cc2c(cc1NC(=O)c1cc(F)cc3[nH]ncc13)CNC2 | 5.39 µM
53 | O=C(Nc1ccc2c(c1)CNC2)c1cc(Cl)cc2cc[nH]c12 | 87.9 µM
54 | C=CC[C@H]1NCc2cc(NC(=O)c3cc(F)cc4[nH]ncc34)ccc21 | 32.3 µM
55 | Cc1ccccc1-c1nc2c(C(=O)Nc3ccc4c(c3)CNC4)cc(F)cc2[nH]1 | 2.2 µM
56 | O=C(Nc1cc(Br)c2c(c1)CNC2)c1cc(F)cc2[nH]ncc12 | 15 µM
57 | C=CC[C@H](Nc1cc(Cl)cc(NC(=O)OCc2ccccc2)c1)c1cccc(-c2nn[nH]n2)c1 | 6.43 µM
58 | CNC(=O)[C@H](Nc1cc(CN)cc(C(=O)O)c1)c1cc(Cl)cc(C2CC2)c1 | > 99.5 µM
59 | O=C(NCC(F)F)[C@H](Nc1ccc2c(c1)CNC2)c1cc(F)cc2[nH]ncc12 | 93.7 µM
60 | O=C1Cc2c(cc(F)cc2C(=O)Nc2ccc3c(c2)CNC3)N1 | 8.59 µM
61 | O=C(Nc1cc(Cl)cc([C@H]2C[C@@H]2c2cccc(C3CCNCC3)c2)c1)OCc1ccccc1 | 4.79 µM
62 | O=C(Nc1ccc2c(c1)CNC2)c1ccc2c(C3=CCNCC3)csc2c1 | 54.4 µM
63 | CC(C)CNC(=O)c1cc(Cl)ccc1NS(=O)(=O)c1ccc(Oc2ccccc2Cl)cc1 | 12.1 µM
64 | C=CC[C@H]1NCc2cc(N[C@H](C(=O)NC(C)C)c3cc(Cl)cc4[nH]ncc34)ccc21 | 55.1 µM
65 | O=C(Nc1ccc2c(c1)CNC2)c1cc(F)cc2[nH]c(-c3ccccc3F)nc12 | 3.44 µM
66 | O=C(NC1CCOCC1)[C@H](Nc1ccc2c(c1)CNC2)c1cc(Cl)cc2[nH]ncc12 | 39.5 µM
67 | CNC(=O)[C@H](Nc1cc(Cl)cc(NC(=O)OCc2ccccc2)c1)c1cccc(-c2nn[nH]n2)c1 | 40.4 µM
68 | O=C(Nc1ccc2c(c1)CNC2)c1cc(F)c2[nH]ccc2c1 | > 99.5 µM
69 | N[C@H]1CC[C@H](c2ccc(NC(=O)c3cc(Cl)cc(NC(=O)OCc4ccccc4)c3)cc2)C1 | 5.84 µM
70 | Cn1c(=O)[nH]c2c(C(=O)Nc3ccc4c(c3)CNC4)cc(Br)cc21 | > 99.5 µM
71 | OCC#C[C@H](Nc1ccc2c(c1)CNC2)c1cc(Cl)cc2[nH]ncc12 | 26.2 µM
72 | O=C(Nc1ccc2c(c1)CNC2)c1cc(F)cc2c1CCC2 | > 99.5 µM
73 | NCc1cccc(NC(=O)c2cc(Cl)cc(NC(=O)OCc3ccccc3)c2)c1 | 26.8 µM
74 | c1cc(C2CCN(Cc3c[nH]c4ccccc34)CC2)c2ccncc2c1 | > 99.5 µM
75 | Cc1cccc(-c2nc3c(C(=O)Nc4ccc5c(c4)CNC5)cc(Cl)cc3[nH]2)c1O | 4.44 µM

Row | SMILES | IC50
76 | CNC(=O)[C@H](Nc1cccc(CN)c1)c1cc(Cl)cc(NC(=O)OCc2ccccc2)c1 | > 99.5 µM
77 | O=C(Nc1ccc2c(c1)CNC2)c1cccc2[nH]c(=O)[nH]c12 | 40.8 µM
78 | O=C(Nc1ccc2c(c1)CNC2)c1cc(Cl)cc(C(F)(F)F)n1 | 10.4 µM
79 | O=C(Nc1ccc2c(c1)CNC2)c1cc(F)cc2[nH]c(-c3ccc(F)cc3)nc12 | 2.96 µM
80 | CCc1cc(C(=O)Nc2cccc(-n3nn[nH]c3=O)c2)sc1-c1ccc(Cl)cc1 | 11.9 µM
81 | Cc1c(C(=O)Nc2cc(CCCN)ccn2)cc(C2CC2)n1C | 34.5 µM
82 | O=C(Nc1ccc2c(c1)CNC2)c1cccc2nc(O)ccc12 | > 99.5 µM
83 | NCc1ccc([C@H]2C[C@@H]2c2cc(Cl)cc(NC(=O)OCc3ccccc3)c2)cc1 | 6.85 µM
84 | COc1cc(-c2cc(NC(=O)c3cc(F)cc4[nH]ncc34)cc3c2CNC3)ccn1 | 12.9 µM
85 | CCOCCNC(=O)[C@H](Nc1ccc2c(c1)CNC2)c1cc(Cl)cc2[nH]ncc12 | > 99.5 µM
86 | O=C(Nc1cc(Cl)cc(C(=O)Nc2ccc3c(c2)CCNC3)c1)OCc1ccccc1 | 24.4 µM
87 | CC(C)(c1nc2c(C(=O)Nc3ccc4c(c3)CNC4)cc(F)cc2[nH]1)S(C)(=O)=O | 13.6 µM
88 | O=C1Cc2cc(C(=O)Nc3ccc4c(c3)CNC4)ccc2N1 | 7.13 µM and 5.44 µM
89 | NCCc1csc2cc(C(=O)Nc3ccc4c(c3)CNC4)ccc12 | > 99.5 µM
90 | Cc1ccc(NC(=O)c2cc(Cl)cc(NC(=O)OCc3ccccc3)c2)cc1CN | 57.7 µM
91 | O=C(Nc1ccc2c(c1)CNC2)c1cc(F)cc2[nH]c(-c3ccccc3)nc12 | 3.57 µM
92 | O=C(Nc1ccc2c(c1)CNC2)c1cc(Cl)cc2nn(-c3ccccc3)nc12 | 4.73 µM
93 | Cc1[nH]c2ccccc2c1CN1CCC(c2c[nH]c3ncccc23)CC1 | > 99.5 µM
94 | O=C(Nc1ccc2c(c1)CNC2)c1cccc2cn[nH]c12 | 37.3 µM
95 | O=C(Nc1cc2c(cc1Br)CNC2)c1cc(F)cc2[nH]ncc12 | 21.8 µM
96 | O=C(Nc1ccc2c(c1)CNC2)c1ccc2[nH]ccc2c1 | > 99.5 µM
97 | O=C(Nc1cc2c(c(C3=CCS(=O)(=O)CC3)c1)CNC2)c1cc(F)cc2[nH]ncc12 | 12.8 µM
98 | CNC(=O)[C@H](Nc1cc(CN)cc(-c2nn[nH]n2)c1)c1cc(Cl)cc(C2CC2)c1 | > 99.5 µM
99 | O=C(Nc1cc2c(c(C3=CCOCC3)c1)CNC2)c1cc(F)cc2[nH]ncc12 | 8.47 µM
100 | O=C(Nc1cc(Cl)cc(C(=O)Nc2cccc(-n3nn[nH]c3=O)c2)c1)OCc1ccccc1 | 10.5 µM
